According to ChEMBL document CHEMBL3580566, “Identification of 2-[4-[(4-Methoxyphenyl)methoxy]-phenyl]acetonitrile and Derivatives as Potent Oct3/4 Inducers” (2015):
Activity calls are given as the source filed them. No cut-off for these calls is given here.

Legend:
[1] = target: POU domain, class 5, transcription factor 1 (Homo sapiens) (UniProt Q01860); assay: Activation of human Oct3/4 in NCCIT cells transfected with firefly luciferase gene assessed as relative luciferase activity after 72 hrs by luminometer plate reader relative to DMSO control; format: cell-based
Sequence of POU domain, class 5, transcription factor 1 (Homo sapiens) (Q01860 whole entry, the tested form may be a part): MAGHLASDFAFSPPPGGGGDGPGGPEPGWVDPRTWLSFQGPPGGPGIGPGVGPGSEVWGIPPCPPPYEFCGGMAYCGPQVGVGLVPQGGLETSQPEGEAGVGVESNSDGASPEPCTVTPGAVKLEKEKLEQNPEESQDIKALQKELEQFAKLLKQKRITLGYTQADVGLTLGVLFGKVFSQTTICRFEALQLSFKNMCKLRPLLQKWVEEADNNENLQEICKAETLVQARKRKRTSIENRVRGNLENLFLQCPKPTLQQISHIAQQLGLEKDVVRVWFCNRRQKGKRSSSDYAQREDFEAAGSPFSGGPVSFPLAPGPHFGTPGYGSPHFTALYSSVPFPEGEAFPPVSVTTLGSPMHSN

[2] = target: POU domain, class 5, transcription factor 1 (Homo sapiens) (UniProt Q01860); assay: Activation of human Oct3/4 in HEK293 cells transfected with firefly luciferase gene assessed as relative luciferase activity after 72 hrs by luminometer plate reader relative to DMSO control; format: cell-based
[3] = target: POU domain, class 5, transcription factor 1 (Homo sapiens) (UniProt Q01860); assay: Activation of human Oct3/4 in HEK293 cells transfected with firefly luciferase gene assessed as luciferase signal by luminometer plate reader relative to DMSO control; format: cell-based
[4] = target: POU domain, class 5, transcription factor 1 (Homo sapiens) (UniProt Q01860); assay: Activation of human Oct3/4 in HEK293 cells transfected with firefly luciferase gene assessed as relative luciferase activity after 48 to 72 hrs by luminometer plate reader relative to DMSO control; format: cell-based
[5] = target: POU domain, class 5, transcription factor 1 (Homo sapiens) (UniProt Q01860); assay: Activation of human Oct3/4 in HEK293 cells transfected with firefly luciferase gene assessed as relative luciferase activity at 5 uM after 48 hrs by luminometer plate reader relative to DMSO control; format: cell-based
[6] = target: POU domain, class 5, transcription factor 1 (Homo sapiens) (UniProt Q01860); assay: Activation of human Oct3/4 in HEK293 cells transfected with firefly luciferase gene assessed as relative luciferase activity at 5 uM after 72 hrs by luminometer plate reader relative to DMSO control; format: cell-based
[7] = target: POU domain, class 5, transcription factor 1 (Homo sapiens) (UniProt Q01860); assay: Activation of human Oct3/4 in HEK293 cells transfected with firefly luciferase gene assessed as relative luciferase activity at 5 uM by luminometer plate reader relative to DMSO control; format: cell-based; conditions: TDE = time-dependent effect
HEK293 [8] = assay: Induction of human Oct3/4 expression in HEK293 cells transfected with firefly luciferase gene assessed as increase in mRNA level at 10 uM after 72 hrs by qRT-PCT analysis; format: functional
HEK293 [9] = assay: Induction of human Oct3/4 expression in HEK293 cells transfected with firefly luciferase gene assessed as increase in mRNA level at 20 uM after 72 hrs by qRT-PCT analysis; format: functional
HEK293 [10] = assay: Induction of human Oct3/4 protein expression in HEK293 cells assessed as increase in protein expression at 6 uM after 48 hrs by immunoblotting analysis relative to DMSO control; format: functional, cell-based
HEK293 [11] = assay: Induction of human Oct3/4 protein expression in HEK293 cells assessed as increase in protein expression after 48 hrs by immunoblotting analysis relative to DMSO control; format: functional, cell-based
HEK293 [12] = assay: Induction of human Sox2 protein expression in HEK293 cells assessed as increase in protein expression at 0.5 to 20 uM after 48 hrs by immunoblotting analysis relative to DMSO control; format: functional, cell-based
HEK293 [13] = assay: Induction of human Nanog protein expression in HEK293 cells assessed as increase in protein expression at 0.5 to 20 uM after 48 hrs by immunoblotting analysis relative to DMSO control; format: functional, cell-based
HEK293 [14] = assay: Induction of human Oct3/4 protein expression in HEK293 cells assessed as increase in protein expression at 10 uM after 24 hrs by immunoblotting analysis relative to DMSO control; format: functional, cell-based
HEK293 [15] = assay: Induction of human Sox2 protein expression in HEK293 cells assessed as increase in protein expression at 10 uM after 24 hrs by immunoblotting analysis relative to DMSO control; format: functional, cell-based
HEK293 [16] = assay: Induction of human Sox2 protein expression in HEK293 cells assessed as increase in protein expression at 10 uM after 96 hrs by immunoblotting analysis relative to DMSO control; format: functional, cell-based
HEK293 [17] = assay: Induction of human Sox2 protein expression in HEK293 cells assessed as increase in protein expression at 10 uM after 48 hrs by immunoblotting analysis relative to DMSO control; format: functional, cell-based
HEK293 [18] = assay: Induction of human Oct3/4 protein expression in HEK293 cells assessed as increase in protein expression at 10 uM after 48 hrs by immunoblotting analysis relative to DMSO control; format: functional, cell-based
HEK293 [19] = assay: Induction of human Oct3/4 protein expression in HEK293 cells assessed as increase in protein expression at 10 uM after 96 hrs by immunoblotting analysis relative to DMSO control; format: functional, cell-based
Fibroblast [20] = assay: Induction of human Oct3/4 protein expression in human adult primary fibroblasts assessed as increase in protein expression at 10 uM after 72 hrs by immunoblotting analysis relative to control; format: functional, cell-based
HFF = assay: Induction of human Oct3/4 protein expression in human neonatal foreskin fibroblasts assessed as increase in protein expression at 10 uM after 72 hrs by immunoblotting analysis relative to control; format: functional, cell-based
[21] = target: Homeobox protein NANOG (Homo sapiens) (UniProt Q9H9S0); assay: Activation of human Nanog in NCCIT cells transfected with firefly luciferase gene assessed as relative luciferase activity up to 72 hrs by luminometer plate reader relative to DMSO control; format: cell-based
Sequence of Homeobox protein NANOG (Homo sapiens) (Q9H9S0 whole entry): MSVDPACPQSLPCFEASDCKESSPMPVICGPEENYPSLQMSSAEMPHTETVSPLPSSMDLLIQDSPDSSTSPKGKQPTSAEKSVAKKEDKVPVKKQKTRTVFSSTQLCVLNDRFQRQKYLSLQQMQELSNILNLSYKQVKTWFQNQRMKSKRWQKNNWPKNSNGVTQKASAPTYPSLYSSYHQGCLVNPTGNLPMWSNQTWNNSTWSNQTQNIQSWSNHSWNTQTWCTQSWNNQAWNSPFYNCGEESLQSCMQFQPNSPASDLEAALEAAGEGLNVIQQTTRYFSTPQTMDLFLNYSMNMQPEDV

NCCIT [22] = assay: Induction of Oct3/4 accumulation in human NCCIT cells at 10 uM after 48 hrs by immunolotting analysis; format: functional, cell-based
HeLa [23] = assay: Induction of Oct3/4 accumulation in human HeLa cells at 10 uM after 48 hrs by immunolotting analysis; format: functional, cell-based
NCCIT [24] = assay: Induction of Nanog accumulation in human NCCIT cells at 10 uM after 48 hrs by immunolotting analysis; format: functional, cell-based
HeLa [25] = assay: Induction of Nanog accumulation in human HeLa cells at 10 uM after 48 hrs by immunolotting analysis; format: functional, cell-based
Fibroblast [26] = assay: Induction of human Oct3/4 protein expression in human adult primary fibroblasts assessed as increase in protein expression at 20 uM after 72 hrs by immunoblotting analysis relative to control; format: functional, cell-based
Fibroblast [27] = assay: Induction of human Lin28 protein expression in human adult primary fibroblasts assessed as increase in protein expression at 20 uM after 72 hrs by immunoblotting analysis relative to control; format: functional, cell-based
Fibroblast [28] = assay: Induction of human Sox2 protein expression in human adult primary fibroblasts assessed as increase in protein expression at 20 uM after 72 hrs by immunoblotting analysis relative to control; format: functional, cell-based
Fibroblast [29] = assay: Induction of human Nanog protein expression in human adult primary fibroblasts assessed as increase in protein expression at 20 uM after 72 hrs by immunoblotting analysis relative to control; format: functional, cell-based
[30] = target: POU domain, class 5, transcription factor 1 (Homo sapiens) (UniProt Q01860); assay: Activation of human Oct3/4 in human adult primary fibroblasts at 20 uM by immunoblotting analysis relative to control; conditions: TDE = time-dependent effect
Fibroblast [31] = assay: Induction of human Oct3/4 gene expression in human adult primary fibroblasts assessed as increase in mRNA level at 20 uM after 48 hrs by qRT-PCR analysis relative to control; format: functional
Fibroblast [32] = assay: Induction of human Nanog gene expression in human adult primary fibroblasts assessed as increase in mRNA level at 20 uM after 48 hrs by qRT-PCR analysis relative to control; format: functional
Fibroblast [33] = assay: Induction of human Klf4 gene expression in human adult primary fibroblasts assessed as increase in mRNA level at 20 uM after 48 hrs by qRT-PCR analysis relative to control; format: functional
Fibroblast [34] = assay: Induction of human Rex1 gene expression in human adult primary fibroblasts assessed as increase in mRNA level at 20 uM after 48 hrs by qRT-PCR analysis relative to control; format: functional
Fibroblast [35] = assay: Induction of human c-Myc gene expression in human adult primary fibroblasts assessed as increase in mRNA level at 20 uM after 48 hrs by qRT-PCR analysis relative to control; format: functional
Fibroblast [36] = assay: Induction of human E-Cadherin level in human adult primary fibroblasts assessed as increase in protein level at 20 uM after 72 hrs by FACS analysis relative to control; format: functional, cell-based
Fibroblast [37] = assay: Induction of human Nanog protein expression in human adult primary fibroblasts assessed as increase in protein level at 20 uM after 5 days by Hoechst 33258 staining based immunostaining relative to control; format: functional, cell-based
Fibroblast [38] = assay: Induction of human KLF4 protein expression in human adult primary fibroblasts assessed as increase in protein level at 20 uM after 5 days by Hoechst 33258 staining based immunostaining relative to control; format: functional, cell-based
Fibroblast [39] = assay: Induction of human Oct3/4 protein expression in human adult primary fibroblasts assessed as increase in protein level at 20 uM after 5 days by Hoechst 33258 staining based immunostaining relative to control; format: functional, cell-based
Fibroblast [40] = assay: Induction of human Sox2 protein expression in human adult primary fibroblasts assessed as increase in protein level at 20 uM after 5 days by Hoechst 33258 staining based immunostaining relative to control; format: functional, cell-based
Fibroblast [41] = assay: Induction of human Oct3/4 and Sox2 protein expression in human adult primary fibroblasts assessed as positive cells normalized to total number of cells; format: functional, cell-based
Fibroblast [42] = assay: Induction of human Oct3/4 protein expression in human adult primary fibroblasts assessed as positive cells normalized to total number of cells; format: functional
Fibroblast [43] = assay: Induction of human Sox2 protein expression in human adult primary fibroblasts assessed as positive cells normalized to total number of cells; format: functional
Fibroblast [44] = assay: Induction of cell cycle arrest in human adult primary fibroblasts assessed as accumulation of cells at G1 phase at 20 uM after 5 days by propidium iodide staining assay (reference value: 74%); format: functional
Fibroblast [45] = assay: Induction of cell cycle arrest in human adult primary fibroblasts assessed as accumulation of cells at S phase at 20 uM after 5 days by propidium iodide staining assay (reference value: 2%); format: functional

N#CCc1ccc(OCc2ccc(OC(F)(F)F)cc2)cc1
RLU [1]: 2.14
RLU [2]: 4.9

N#CCc1ccc(OCc2ccc(C#N)cc2)cc1
RLU [1]: 1.88
RLU [2]: 1.79

COc1ccc(COc2ccc(C#N)cc2)cc1
RLU [1]: 0.99
RLU [2]: 3

N#Cc1ccc(OCc2ccc(OC(F)(F)F)cc2)cc1
RLU [1]: 1.5
RLU [2]: 3.4

Cc1ccc(COc2ccc(CC#N)cc2)cc1
RLU [1]: 2.26
RLU [2]: 2

N#Cc1ccc(OCc2ccc([N+](=O)[O-])cc2)cc1
RLU [1]: 1.08
RLU [2]: 2.65

COc1ccc(COc2ccc(CC#N)cc2)cc1
fold change (FC) [3]: 5
Activity [4]: Dose-dependent effect
fold change (FC) [5]: 2
fold change (FC) [6]: 3
Activity [7]: tde
fold change (FC) (HEK293 [8]): 2.5
fold change (FC) (HEK293 [9]): 4
RLU [1]: 2.68
Activity (HEK293 [10]): Active
Activity (HEK293 [11]): Dose-dependent effect
Activity (HEK293 [12]): Active
Activity (HEK293 [13]): Active
Activity (HEK293 [14]): Active
Activity (HEK293 [15]): Active
Activity (HEK293 [16]): Active
Activity (HEK293 [17]): Active
Activity (HEK293 [18]): Active
Activity (HEK293 [19]): Active
Activity (Fibroblast [20]): Active
Activity (HFF): Active
RLU [2]: 3.85
Activity [21]: Active

N#CCc1ccc(OCc2ccc(-c3ccccc3)cc2)cc1
RLU [1]: 0.73
RLU [2]: 0.84

N#CCc1ccc(OCc2ccc([N+](=O)[O-])cc2)cc1
RLU [1]: 2.61
RLU [2]: 4.02

N#Cc1ccc(OCc2ccc(F)cc2)cc1
RLU [1]: 2.26
RLU [2]: 5.83

N#CCc1ccc(OCc2ccc(F)cc2)cc1
RLU [1]: 4.02
RLU [2]: 6.58
Activity [21]: Active
Activity (NCCIT [22]): Active
Activity (HeLa [23]): Active
Activity (NCCIT [24]): Active
Activity (HeLa [25]): Active
Activity (Fibroblast [26]): Active
Activity (Fibroblast [27]): Active
Activity (Fibroblast [28]): Active
Activity (Fibroblast [29]): Active
Activity [30]: tde
fold change (FC) (Fibroblast [31]): 7
fold change (FC) (Fibroblast [32]): 12
fold change (FC) (Fibroblast [33]): 6
fold change (FC) (Fibroblast [34]): 1.3
fold change (FC) (Fibroblast [35]): 2
Activity (Fibroblast [36]): Active
Activity (Fibroblast [37]): Active
Activity (Fibroblast [38]): Active
Activity (Fibroblast [39]): Active
Activity (Fibroblast [40]): Active
Activity (Fibroblast [41]): Active
Activity (Fibroblast [42]): 6%
Activity (Fibroblast [43]): 9%
Activity (Fibroblast [44]): 66%
Activity (Fibroblast [45]): 7%
